From patent US7423158B2, “Amino-5-[4-(difluoromethoxy)phenyl]-5-phenylimidazolone compounds for the inhibition of β-secretase” (Wyeth, priority 2005, dated 2008)

SMILES	melting point [°C]
CCCNC(=O)c1cccc(C2(c3ccc(OC(F)F)cc3)N=C(N)N(C)C2=O)c1 (centres unmarked) [Example 29, 3-{2-Amino-4-[4-(difluoromethoxy)phenyl]-1-methyl-5-oxo-4,5-dihydro-1H-imidazol-4-yl}-N-propylbenzamide]	93 to 96
CN1C(=O)C(c2ccc(OC(F)F)cc2)(c2cccc(COCCF)c2)N=C1N (centres unmarked) [Example 30, 2-Amino-5-[4-(difluoromethoxy)phenyl]-5-{3-[(2-fluoroethoxy)methyl]phenyl}-3-methyl-3,5-dihydro-4H-imidazol-4-one]	40 to 43
CN1C(=O)C(c2ccc(OC(F)F)cc2)(c2cccc(COCCC(F)(F)F)c2)N=C1N (centres unmarked) [Example 31, 2-amino-5-[4-(difluoromethoxy)phenyl]-3-methyl-5-{3-[(3,3,3-trifluoropropoxy)methyl]phenyl}-3,5-dihydro-4H-imidazol-4-one]	46 to 48
CCCCOCc1cccc(C2(c3ccc(OC(F)F)cc3)N=C(N)N(C)C2=O)c1 (centres unmarked) [Example 33, 2-amino-5-[3-(butoxymethyl)phenyl]-5-[4-(difluoromethoxy)phenyl]-3-methyl-3,5-dihydro-4H-imidazol-4-one]	37 to 39
CN1C(=O)C(c2ccc(OC(F)F)cc2)(c2cccc(COCC3CC3)c2)N=C1N (centres unmarked) [Example 34, 2-amino-5-{3-[(cyclopropylmethoxy)methyl]phenyl}-5-[4-(difluoromethoxy)phenyl]-3-methyl-3,5-dihydro-4H-imidazol-4-one]	47 to 50
CCOCc1cccc(C2(c3ccc(OC(F)F)cc3)N=C(N)N(C)C2=O)c1 (centres unmarked) [Example 35, 2-amino-5-[4-(difluoromethoxy)phenyl]-5-[3-(ethoxymethyl)phenyl]-3-methyl-3,5-dihydro-4H-imidazol-4-one]	45 to 48
CCCOCc1cccc(C2(c3ccc(OC(F)F)cc3)N=C(N)N(C)C2=O)c1 (centres unmarked) [Example 36, 2-amino-5-[4-(difluoromethoxy)phenyl]-3-methyl-5-[3-(propoxymethyl)phenyl]-3,5-dihydro-4H-imidazol-4-one]	40 to 43
CN1C(=O)C(c2ccc(OC(F)F)cc2)(c2cccc(COC(CF)CF)c2)N=C1N (centres unmarked) [Example 37, 2-amino-5-[4-(difluoromethoxy)phenyl]-5-(3-{[2-fluoro-1-(fluoromethyl)ethoxy]methyl}phenyl)-3-methyl-3,5-dihydro-4H-imidazol-4-one]	46 to 50
CN1C(=O)C(c2ccc(OC(F)F)cc2)(c2cccc(COCC(F)(F)C(F)F)c2)N=C1N (centres unmarked) [Example 39, 2-amino-5-[4-(difluoromethoxy)phenyl]-3-methyl-5-{3-[(2,2,3,3-tetrafluoropropoxy)methyl]phenyl}-3,5-dihydro-4H-imidazol-4-one]	48 to 50
CN1C(=O)C(c2ccc(OC(F)F)cc2)(c2cccc(OCCCF)c2)N=C1N (centres unmarked) [Example 59, 2-Amino-5-[4-(difluoromethoxy)phenyl]-5-[3-(3-fluoropropox-1-yl)phenyl]-3-methyl-3,5-dihydro-4H-imidazol-4-one]	161 to 162
CN1C(=O)C(c2ccc(OC(F)F)cc2)(c2cccc(OCCCC(F)(F)F)c2)N=C1N (centres unmarked) [Example 62, 2-amino-5-[4-(difluoromethoxy)phenyl]-3-methyl-5-[3-(4,4,4-trifluorobutoxy)phenyl]-3,5-dihydro-4H-imidazol-4-one]	82 to 85
CN1C(=O)C(c2ccc(OC(F)F)cc2)(c2cccc(OCCCCF)c2)N=C1N (centres unmarked) [Example 64, 2-amino-5-[4-(difluoromethoxy)phenyl]-5-[3-(4-fluorobutoxy)phenyl]-3-methyl-3,5-dihydro-4H-imidazol-4-one]	139 to 140
C=CCCc1cc(C2(c3ccc(OC(F)F)cc3)N=C(N)N(C)C2=O)ccc1F (centres unmarked) [Example 84, 2-Amino-5-(3-but-3-en-1-yl-4fluorophenyl)-5-[4-(difluoromethoxy)phenyl]-3-methyl-3,5-dihydro-4H-imidazol-4-one]	55 to 58
CN1C(=O)C(c2ccc(OC(F)F)cc2)(c2cccc(C3CC(=O)C3(C)C)c2)N=C1N (centres unmarked) [Example 87, 2-Amino-5-[4-(difluoromethoxy)phenyl]-5-[3-(2,2-dimethyl-3-oxocyclobutyl)phenyl]-3-methyl-3,5-dihydro-4H-imidazol-4-one]	172 to 174
CN1C(=O)C(c2ccc(OC(F)F)cc2)(c2cccc(C3CC(=O)C3)c2)N=C1N (centres unmarked) [Example 88, 2-Amino-5-[4-(difluoromethoxy)phenyl]-3-methyl-5-[3-(3-oxocyclobutyl)phenyl]-3,5-dihydro-4H-imidazol-4-one]	68 to 70
CN1C(=O)C(c2ccc(OC(F)F)cc2)(c2cccc(C3CC(O)C3)c2)N=C1N (centres unmarked) [Example 89, 2-Amino-5-[4-(difluoromethoxy)phenyl]-5-[3-(3-hydroxycyclobutyl)phenyl]-3-methyl-3,5-dihydro-4H-imidazol-4-one]	186 to 190
CCOC(=O)C=C1CC(c2cccc(C3(c4ccc(OC(F)F)cc4)N=C(N)N(C)C3=O)c2)C1 (centres unmarked) [Example 90, Ethyl [3-(3-{2-Amino-4-[4-(difluoromethoxy)phenyl]-1-methyl-5-oxo-4,5-dihydro-1H-imidazol-4-yl}phenyl)cyclobutylidene]acetate]	78 to 80
COC(=O)CC1CC(c2cccc(C3(c4ccc(OC(F)F)cc4)N=C(N)N(C)C3=O)c2)C1 (centres unmarked) [Example 92, methyl [3-(3-{2-amino-4-[4-(difluoromethoxy)phenyl]-1-methyl-5-oxo-4,5-dihydro-1H-imidazol-4-yl}phenyl)cyclobutyl]acetate]	68 to 70

Continued, values first:

melting point [°C]	SMILES
65	CN1C(=O)C(c2ccc(OC(F)F)cc2)(c2cccc(CCCCC#N)c2)N=C1N (centres unmarked) [Example 14, 5-(3-{2-Amino-4-[4-(difluoromethoxy)phenyl]-1-methyl-5-oxo-4,5-dihydro-1H-imidazol-4-yl}phenyl)pentanenitrile]
58 to 60	C=C(F)CCc1cccc(C2(c3ccc(OC(F)F)cc3)N=C(N)N(C)C2=O)c1 (centres unmarked) [Example 17, 2-Amino-5-[4-(difluoromethoxy)phenyl]-5-[3-(3-fluorobut-3-en-1-yl)phenyl]-3-methyl-3,5-dihydro-4H-imidazol-4-one]
54 to 57	CN1C(=O)C(c2ccc(OC(F)F)cc2)(c2cccc(CCCC(F)F)c2)N=C1N (centres unmarked) [Example 19, 2-Amino-5-[3-(4,4-difluorobutyl)phenyl]-5-[4-(difluoromethoxy)phenyl]-3-methyl-3,5-dihydro-4H-imidazol-4-one]
63 to 66	CN1C(=O)C(c2ccc(OC(F)F)cc2)(c2cccc(CCCCO)c2)N=C1N (centres unmarked) [Example 21, 2-Amino-5-[4-(difluoromethoxy)phenyl]-5-[3-(4-hydroxybutyl)phenyl]-3-methyl-3,5-dihydro-4H-imidazol-4-one]
48 to 50	COCCCc1cccc(C2(c3ccc(OC(F)F)cc3)N=C(N)N(C)C2=O)c1 (centres unmarked) [Example 24, 2-Amino-5-[4-(difluoromethoxy)phenyl]-5-[3-(3-methoxypropyl)phenyl]-3-methyl-3,5-dihydro-4H-imidazol-4-one]
36 to 39	COCCCCc1cccc(C2(c3ccc(OC(F)F)cc3)N=C(N)N(C)C2=O)c1 (centres unmarked) [Example 28, 2-amino-5-[4-(difluoromethoxy)phenyl]-5-[3-(4-methoxybutyl)phenyl]-3-methyl-3,5-dihydro-4H-imidazol-4-one]
70 to 72	COCc1cccc(C2(c3ccc(OC(F)F)cc3)N=C(N)N(C)C2=O)c1 (centres unmarked) [Example 32, 2-amino-5-[4-(difluoromethoxy)phenyl]-5-[3-(methoxymethyl)phenyl]-3-methyl-3,5-dihydro-4H-imidazol-4-one]
60 to 63	CN1C(=O)C(c2ccc(OC(F)F)cc2)(c2cccc(CCF)c2)N=C1N (centres unmarked) [Example 55, 2-Amino-5-[4-(difluoromethoxy)phenyl]-5-[3-(2-fluoroethyl)phenyl]-3-methyl-3,5-dihydro-4H-imidazol-4-one]
